How the values were obtained:
RML-1 = target: T1, RML-1 (Caenorhabditis elegans, UniProt Q9XUS4); test: EnzChek pyrophosphate assay, […] nm; type: biochemical; conditions: 1 mM Glc-1-P; 5 mM MgCl2, pH 7.5, 25°C
T1 sequence (Q9XUS4 1-511): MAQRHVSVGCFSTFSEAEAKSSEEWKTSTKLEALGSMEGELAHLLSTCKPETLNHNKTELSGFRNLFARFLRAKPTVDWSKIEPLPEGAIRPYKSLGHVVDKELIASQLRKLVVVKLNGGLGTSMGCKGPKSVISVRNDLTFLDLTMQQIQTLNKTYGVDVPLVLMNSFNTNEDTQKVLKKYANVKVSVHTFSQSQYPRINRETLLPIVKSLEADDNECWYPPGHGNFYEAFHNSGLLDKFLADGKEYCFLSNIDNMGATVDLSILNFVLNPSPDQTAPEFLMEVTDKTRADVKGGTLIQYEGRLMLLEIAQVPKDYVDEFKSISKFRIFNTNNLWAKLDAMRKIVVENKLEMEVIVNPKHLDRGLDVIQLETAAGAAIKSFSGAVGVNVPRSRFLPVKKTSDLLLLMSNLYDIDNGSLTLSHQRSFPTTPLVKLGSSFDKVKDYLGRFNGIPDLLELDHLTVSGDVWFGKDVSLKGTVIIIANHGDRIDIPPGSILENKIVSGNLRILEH

RML-4–RML-5 = target: T2, RML-4–RML-5 (Caenorhabditis elegans, UniProt Q17556); test: LC–MS; type: biochemical; conditions: formed from dTDP-4-keto-6-deoxyglucose with RML-3 and NAD(P)H, 25°C
T2 sequence (Q17556 1-631): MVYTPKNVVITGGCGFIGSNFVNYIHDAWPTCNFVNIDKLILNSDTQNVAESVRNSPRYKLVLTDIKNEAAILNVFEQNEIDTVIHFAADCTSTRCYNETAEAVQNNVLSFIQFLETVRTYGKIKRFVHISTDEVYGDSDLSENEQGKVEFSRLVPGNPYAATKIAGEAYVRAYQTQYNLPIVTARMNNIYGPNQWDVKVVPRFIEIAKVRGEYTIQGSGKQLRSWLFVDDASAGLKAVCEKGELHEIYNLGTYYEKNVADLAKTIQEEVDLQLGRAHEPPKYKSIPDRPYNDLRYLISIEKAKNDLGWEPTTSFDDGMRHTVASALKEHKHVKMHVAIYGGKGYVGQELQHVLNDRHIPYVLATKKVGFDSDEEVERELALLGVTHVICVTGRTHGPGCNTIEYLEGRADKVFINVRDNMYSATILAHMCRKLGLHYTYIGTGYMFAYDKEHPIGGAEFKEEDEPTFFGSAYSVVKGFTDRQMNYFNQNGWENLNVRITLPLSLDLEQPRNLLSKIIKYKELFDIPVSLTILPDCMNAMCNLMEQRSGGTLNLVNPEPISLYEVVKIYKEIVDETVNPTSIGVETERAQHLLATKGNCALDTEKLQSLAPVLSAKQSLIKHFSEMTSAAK
T2 sequence (Q95XM5 1-383 partner): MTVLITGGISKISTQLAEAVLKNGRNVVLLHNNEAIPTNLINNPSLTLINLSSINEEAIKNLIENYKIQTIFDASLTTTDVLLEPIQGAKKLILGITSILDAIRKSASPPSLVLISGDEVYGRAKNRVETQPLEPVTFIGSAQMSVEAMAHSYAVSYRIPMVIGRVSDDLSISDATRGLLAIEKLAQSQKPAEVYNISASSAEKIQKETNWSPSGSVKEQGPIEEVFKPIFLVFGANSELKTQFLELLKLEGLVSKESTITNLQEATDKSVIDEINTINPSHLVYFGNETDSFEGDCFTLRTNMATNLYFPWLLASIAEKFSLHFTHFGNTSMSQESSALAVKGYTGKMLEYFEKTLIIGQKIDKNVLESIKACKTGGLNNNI

Row | Km (RML-1) [µM] | Structure (SMILES) | LC-MS; 1H NMR and COSY of HPLC-purified product (RML-4–RML-5)
1 | 9.47 ± 1.7 | O=c1ccn([C@@H]2O[C@H](COP(=O)(O)OP(=O)(O)OP(=O)(O)O)[C@@H](O)[C@H]2O)c(=O)[nH]1 [UTP] | –
2 | – | Cc1cn([C@H]2C[C@H](O)[C@@H](COP(=O)(O)OP(=O)(O)O[C@H]3O[C@@H](C)[C@H](O)[C@@H](O)[C@H]3O)O2)c(=O)[nH]c1=O [dTDP-rhamnose] | the final product is dTDP-rhamnose when dTDP-4-keto-6-deoxyglucose is incubated with RML-3 and RML-4–RML-5
3 | 24.2 ± 2.86 | Cc1cn([C@H]2C[C@H](O)[C@@H](COP(=O)(O)OP(=O)(O)OP(=O)(O)O)O2)c(=O)[nH]c1=O [dTTP] | –
